Laboratory results published in ChEMBL document CHEMBL1121921, “Synthesis and evaluation of the male antifertility properties of a series of N-unsubstituted sulfamates” (1981).

How the values were obtained:
Assay type in all cases: functional
[1] = tested on: Rattus norvegicus; experiment: Compound was evaluated for male antifertility activity by oral administration in propylene glycol to male Sprague-Dawley rats for 14 consecutive days at dose of 0.40 mmol/kg
[2] = tested on: Rattus norvegicus; experiment: Compound was evaluated for male antifertility activity by oral administration in propylene glycol to male Sprague-Dawley rats for 14 consecutive days at dose of 0.18 mmol/kg
[3] = tested on: Rattus norvegicus; experiment: Compound was evaluated for male antifertility activity by oral administration in propylene glycol to male Sprague-Dawley rats for 14 consecutive days at dose of 0.68 mmol/kg
[4] = tested on: Rattus norvegicus; experiment: Compound was evaluated for male antifertility activity by oral administration in propylene glycol to male Sprague-Dawley rats for 14 consecutive days at dose of 0.36 mmol/kg
[5] = tested on: Rattus norvegicus; experiment: Compound was evaluated for male antifertility activity by oral administration in propylene glycol to male Sprague-Dawley rats for 14 consecutive days at dose of 0.34 mmol/kg
[6] = tested on: Rattus norvegicus; experiment: Compound was evaluated for male antifertility activity by oral administration in propylene glycol to male Sprague-Dawley rats for 14 consecutive days at dose of 0.30 mmol/kg
[7] = tested on: Rattus norvegicus; experiment: Compound was evaluated for male antifertility activity by oral administration in propylene glycol to male Sprague-Dawley rats for 14 consecutive days at dose of 0.04 mmol/kg
[8] = tested on: Rattus norvegicus; experiment: Compound was evaluated for male antifertility activity by oral administration in propylene glycol to male Sprague-Dawley rats for 14 consecutive days at dose of 0.05 mmol/kg
[9] = tested on: Rattus norvegicus; experiment: Compound was evaluated for male antifertility activity by oral administration in propylene glycol to male Sprague-Dawley rats for 14 consecutive days at dose of 0.07 mmol/kg
[10] = tested on: Rattus norvegicus; experiment: Compound was evaluated for male antifertility activity by oral administration in propylene glycol to male Sprague-Dawley rats for 14 consecutive days at dose of 0.09 mmol/kg
[11] = tested on: Rattus norvegicus; experiment: Compound was evaluated for male antifertility activity by oral administration in propylene glycol to male Sprague-Dawley rats for 14 consecutive days at dose of 0.64 mmol/kg
[12] = tested on: Rattus norvegicus; experiment: Compound was evaluated for male antifertility activity by oral administration in propylene glycol to male Sprague-Dawley rats for 14 consecutive days at dose of 0.43 mmol/kg

**Q.** What does the source list for `CC(OS(N)(=O)=O)C(C)OS(N)(=O)=O` (stereo not drawn)?
**A.** No. of implants/pregnancy [1]: 15; No. of males cohabited [1]: 4; No. of males fertile [1]: 3; No. of males mated [1]: 3; Resorbing implants [1]: 0%

**Q.** Which results are given for `NS(=O)(=O)OCCOS(N)(=O)=O`?
**A.** No. of implants/pregnancy [2]: 10.8; No. of males cohabited [2]: 10; No. of males fertile [2]: 8; No. of males mated [2]: 9; Resorbing implants [2]: 40%; No. of males cohabited [3]: 5; No. of males fertile [3]: 0; No. of males mated [3]: 5; No. of implants/pregnancy [4]: 9.8; No. of males cohabited [4]: 8; No. of males fertile [4]: 1; No. of males mated [4]: 7; Resorbing implants [4]: 98.2%

**Q.** What does the source list for `CCCC(C)(COS(N)(=O)=O)COS(N)(=O)=O`?
**A.** No. of implants/pregnancy [5]: 15.5; No. of males cohabited [5]: 4; No. of males fertile [5]: 4; No. of males mated [5]: 4; Resorbing implants [5]: 12.5%

**Q.** With `NS(=O)(=O)OC1CCCCC1OS(N)(=O)=O` (stereo not drawn) as the molecule, how does the No. of implants/pregnancy [4] read?
**A.** 14

**Q.** What about the “No. of males cohabited” value [4] of the same molecule?
**A.** 5

**Q.** What about the “No. of males fertile” value [4] of the same molecule?
**A.** 5

**Q.** And the “No. of males mated” value [4]?
**A.** 5

**Q.** What about the Resorbing implants [4] of the same molecule?
**A.** 4.4%

**Q.** What does the source list for `NS(=O)(=O)OCCCCCCCCCCOS(N)(=O)=O`?
**A.** No. of implants/pregnancy [6]: 12.5; No. of males cohabited [6]: 5; No. of males fertile [6]: 4; No. of males mated [6]: 5; Resorbing implants [6]: 17.3%

**Q.** What does the source list for `NS(=O)(=O)OCCCCOS(N)(=O)=O`?
**A.** No. of males cohabited [1]: 5; No. of males fertile [1]: 0; No. of males mated [1]: 5; No. of implants/pregnancy [7]: 10.2; No. of males cohabited [7]: 5; No. of males fertile [7]: 5; No. of males mated [7]: 5; Resorbing implants [7]: 56%

**Q.** `CS(=O)(=O)OCCOS(C)(=O)=O` [ETHANE DIMETHANE SULFONATE] was tested. Which No. of implants/pregnancy [8] did it give?
**A.** 9.9

**Q.** And the “No. of males cohabited” value [8]?
**A.** 7

**Q.** And the “No. of males fertile” value [8]?
**A.** 6

**Q.** What about the “No. of males mated” value [8] of the same molecule?
**A.** 7

**Q.** And the Resorbing implants [8]?
**A.** 35.2%

**Q.** And the No. of implants/pregnancy [9]?
**A.** 12.3

**Q.** And the “No. of males cohabited” value [9]?
**A.** 5

**Q.** What about the “No. of males fertile” value [9] of the same molecule?
**A.** 3

**Q.** What about the “No. of males mated” value [9] of the same molecule?
**A.** 4

**Q.** And the Resorbing implants [9]?
**A.** 30.3%

**Q.** And the “No. of males cohabited” value [10]?
**A.** 5

**Q.** What about the “No. of males fertile” value [10] of the same molecule?
**A.** 0

**Q.** And the “No. of males mated” value [10]?
**A.** 4

**Q.** Which results are given for `NS(=O)(=O)OCCCOS(N)(=O)=O`?
**A.** No. of implants/pregnancy [11]: 6.7; No. of males cohabited [11]: 5; No. of males mated [11]: 5; Resorbing implants [11]: 94.4%; No. of implants/pregnancy [12]: 9.3; No. of males cohabited [12]: 5; No. of males fertile [12]: 4; No. of males mated [12]: 5; Resorbing implants [12]: 73.6%
